Experiments:
Format in all cases: in vitro ADME
[1] = In vitro plasma stability, mouse plasma; settings: C57 mouse plasma, 37° C.; for Percent remaining after 2 h incubation / k: 1.0 µM; for half-life at 1 µM: both sexes, pH 7.4, read-out: T½ (converted); for k: pH 7.4
Source text: (§1) Human plasma (Bioreclamation, Cat#: BRH470404, male:female=1:1,v:v); Rat plasma (HDB, Cat#: HDB_RsP_20221120, male:female=1:1,v:v); C57 Mouse plasma (HDB, Cat#: HDB_MsP_202201120, male:female=1:1,v:v); Male cynomolgus monkey plasma (RILD, Cat#: MP210107-P). Analytical grade inorganic salts were purchased from Sinopharm Chemical Reagent Co. (Shanghai, China). HPLC grade organic solvents were purchased from Sigma-Aldrich, USA. Distilled water, prepared from demineralized water, was used throughout the study.
(§2) Stock solution of test compound was provided in 100% DMSO. The stock solution for each compound was diluted into 100 µM with ACN(50%) and then diluted into plasma of different species (pH 7.4) to achieve a final concentration of 1.0 µM.
(§3) 1.0 µM of test compound in duplicate was incubated in plasma at 37° C. Aliquots of 50 µL or 80 µL sample were collected at 0, 0.25, 0.5, 1 and 2 h.
(§4) An aliquot of 50 µL samples were collected at various time points, and mixed with 300 µL of ice-cold 100% acetonitrile containing internal standard. After centrifuging the plate at 4000 rpm for 20 min, 50 µL of supernatants were added with 100 µL H2O, mix well and analyzed with UPLC-MS/MS.
(§5) A Waters liquid chromatographic system was used. Detection was performed on an API4000 Q-Trap and API5500 mass spectrometer equipped with TurbolonSpray (ESI) Interface (Applied Biosystems, Concord, Ontario, Canada). Analyst 1.5 and 1.6.2 software packages (Applied Biosystems) were used to control the LC-MS/MS system, as well as for data acquisition and processing.
(§6) Chromatographic separation was achieved on the Waters ACQUITY UPLC BEH C18 column (50*2.1 mm ID, 1.7 µm) and Thermo Scientific AccucoreTM PFP column(100*2.1 ID mm, 2.6 µm). The column temperature was maintained at ambient temperature (25° C.). The flow rate was maintained at 0.6 mL/min and the mobile phases used were according to Tables 5-7.
(§7) The peak area ratio of test compound to internal standard is plotted as a percentage of the relevant zero time point control (% Remained) for each reaction. The rate of metabolism (k) is the slope of the linear regression from log percentage remaining versus incubation time.

[2] = In vitro plasma stability, human plasma; settings: 37° C.; for Percent remaining after 2 h incubation / k: 1.0 µM; for half-life at 1 µM: both sexes, pH 7.4, read-out: T½ (converted); for k: pH 7.4, slope of log % remaining versus incubation time
Source text: as §1, §2, §3, §4, §5, §6, §7

[3] = In vitro plasma stability, monkey plasma; settings: cynomolgus monkey plasma, 37° C.; for half-life at 1 µM: male, pH 7.4, read-out: T½ (converted)
Source text: as §1, §2, §3, §4, §5, §6, §7

[4] = In vitro plasma stability, rat plasma; settings: SD rat plasma, 37° C.; for half-life at 1 µM: both sexes, pH 7.4, read-out: T½ (converted)
Source text: as §1, §2, §3, §4, §5, §6, §7

Row | Structure (SMILES) | Percent remaining after 2 h incubation [1] | half-life at 1 µM [1] | Percent remaining after 2 h incubation [2] | half-life at 1 µM [2] | Percent remaining after 2 h incubation ([3]; 1.0 µM) | half-life at 1 µM [3] | Percent remaining after 2 h incubation ([4]; 1.0 µM) | half-life at 1 µM [4] | k [1] | k ([3]; 1.0 µM, pH 7.4) | k ([4]; 1.0 µM, pH 7.4) | k [2] | T½ ([3]; 1.0 µM, pH 7.4) | T½ ([4]; 1.0 µM, pH 7.4)
1 | CC(=O)Oc1cccc2[nH]cc(CCN(C)C)c12 [Compound 4-AcO-DMT, 4-acetoxy-N,N-dimethyltryptamine] | 0.00% | < 0.125 h | 0.00% | < 0.125 h | 0.00% | < 0.125 h | 0.00% | < 0.125 h | – | – | – | – | – | –
2 | COc1ccc([C@@H]2Sc3ccccc3N(CCN(C)C)C(=O)[C@@H]2OC(C)=O)cc1 [Diltiazem] | 87.9% | 10.6 h | 80.5% | 6.4 h | 90.5% | 12.8 h | 78.8% | 6.75 h | – | – | – | – | – | –
3 | CCN(CC)CCOC(=O)c1ccc(N)cc1 [Procaine] | 0.00% | < 0.125 h | 0.00% | < 0.125 h | 0.00% | – | 52.0% | 2 h | 11.212 | 26.073 | 0.347 | – | – | –
4 | CN(C)CCc1c[nH]c2cccc(O)c12 [Psilocin] | 89.2% | 14.5 h | 97.9% | 20.5 h | 92.8% | 17.9 h | 86.2% | 7.54 h | 0.048 | 0.039 | 0.092 | 0.034 | – | –
5 | CN(C)CCc1c[nH]c2cccc(OP(=O)(O)O)c12 [Psilocybin] | 93.2% | 91.5 h | 19.4% | 0.82 h | 113% | – | 113% | – | 0.008 | -0.046 | -0.066 | 0.849 | stable | stable

Reference: US20230346747A1, “DIALKYL T[…] THEIR […] USES” (CAAMTECH, INC., priority 2020, published 2023)
